Like-named read-outs stand apart in the source and are kept apart here.
How the values were obtained:
Assay type in all cases: in vivo
female mosquitoes = assay: Tunnel study based on WHOPES tunnel tests with Hemotek membrane feeding device; settings: for mortality at 10 mg/m2: 24 h
Protocol: Based on the “WHOPES tunnel tests” (described at http://apps.who.int/iris/bitstream/10665/80270/1/9789241505277_eng.pdf), except that live guniea pig baits were replaced with a Hemotek membrane feeding device, filled with blood and kept constant at 37° C. to mimic a human host. All tests were done under standardised laboratory controlled conditions (27° C.+2° C. under subdued light). The tunnel apparatus was a 60×30×30 cm glass case open at each end and the floor was lined with wet blue roll in order to maintain humidity. A 30×30×30 cm cage, covered in untreated netting, was placed at the release end. The test nets were cut to 25×25 cm squares and fitted into cardboard frames that allow a 20×20 cm area to be exposed. Nine holes, 1 cm in diameter, were made in the netting in the pattern specified in the WHOPES test. The frames were then fitted into the tunnel one third of the way down its length. A Hemotek device, filled with blood and kept constant at 37° C. to mimic a human host, was placed in the smaller area of the glass tunnel behind the test netting, and the end of the tunnel closed with a netting screen. A human sat at the Hemotek end of the tunnels for the duration of the test. At the start of the test (13.30-14.00), 100 female mosquitoes (non-blood fed, aged 5-8 days) were introduced into the cage. Mosquitoes are free to fly in the tunnel but have to make contact with the piece of netting and locate the holes in it before passing through to reach the bait. After 7 hours (20.30-21.00) the mosquitoes were counted in each section of the tunnel. The number of mosquitoes knocked down and blood fed were recorded. Blood-feeding inhibition was assessed by comparing the proportion of blood-fed females (alive or dead) in treated and control tests. Four tunnels were run simultaneously each day, with one control containing untreated netting included with all runs. Three replicates were carried out per treatment.
(§1) In case of multiple tests, the mean value is reported.

adult female mosquitoes = assay: Bottle assay based on CDC bottle assay
Protocol: Based on the “CDC bottle assay” (described at http://www.cdc.gov/malaria/resources/pdf/fsp/ir_manual/ir_cdc_bioassay_en.pdf) 1 ml of ethanol containing a test compound at a defined concentration was added to a 250 ml glass bottle and the bottles were placed on a rolling table to coat the inner surfaces as the solvent evaporated. Once dry, twenty five non-blood fed adult female mosquitoes of the appropriate species and strains (each three day old) were aspirated from the stock culture and gently blown into the exposure bottles. The lid of the bottle was replaced and the bottle placed upright out of direct sun light under standard culture conditions, nominally 28° C. and 60-80% relative humidity.
A stopwatch was started, and the assessment of the knock-down were made after 15 mins and 60 minutes. A mosquito was said to be knocked down if it was unable to stand, following the CDC definition. The bottles were replaced in an upright position when not being assessed.
After one hour the mosquitoes were carefully removed from the bottle with an aspirator and placed in a recovery cup. The mosquitoes were supplied with a 10% sucrose solution on a cotton wool bung, and stored under culture conditions. Assessments of the mortality were made after 24 hours and 48 hours (B15).
Each treatment was replicated a minimum of four times, with the mean knockdown or mortality recorded. In each study, a set of bottles was infested with a known insecticide susceptible strain of mosquitoes from the same genera as the resistant strains.

Anopheles stephensi [1] = assay: 6 well plate test, knockdown after 1 hour and mortality after 24 and 48 hours; parameters: KD: unit not given here; settings: for KD: after 1 hour
Protocol: The individual wells of six (6) well tissue culture plates were treated with […] of an ethanol solution containing a test compound at a defined concentration. Once the deposits were dry, ten non-blood fed adult female Anopheles stephensi (between two to five day old) were added to each well, and sustained with a 10% sucrose solution in a cotton wool plug. Assessment of the knockdown after 1 hour (Tables B1-B10), and mortality after 24 and 48 hours (Tables B1-B4) was carried out.
as §1

Aedes aegypti = assay: 12 well plate knockdown test; settings: 1 h, read-out: Aedes aegypti 1 hour % KD
Protocol: (§2) The individual wells of a twelve (12) well tissue culture plates were treated with 100 μl of an ethanol solution containing a test compound at a defined concentration. Once the deposits were dry, five non-blood fed adult female Aedes aegypti or Anopheles stephensi (between two to five day old) were added to each well, and sustained with a 10% sucrose solution in a cotton wool plug. Assessment of the knockdown after 1 hour was carried out. Where multiple replicates of a treatment have been undertaken, the mean of those replicates is reported.

Anopheles stephensi [2] = assay: 12 well plate knockdown test; settings: 1 h, read-out: Anopheles stephensi 1 hour % KD
Protocol: as §2

[3] = Table B11, Rate 10 mg/m2, 24 hours, read-out: % Mortality
[4] = Table B1, Comp. (I.3) alone 0.1 ppm
[5] = Table B2, Comp. (I.3) alone 0.5 ppm
[6] = Table B3, Comp. (I.3) alone 0.5 ppm
[7] = Table B4, Comp. (I.3) alone 0.5 ppm

Compound: NC(=O)c1cnccc1C(F)(F)F [I.3]
- mortality at 10 mg/m2 (female mosquitoes; [3]): 68%
- mortality at 10 mg/m2 (female mosquitoes; Table B13, 10 mg/m2, read-out: % 24 hour mortality): 72.2%
- mortality at 10 mg/m2 (female mosquitoes; Table B14, 10 mg/m2, read-out: % 24 hour mortality): 68%
- % Blood fed (female mosquitoes; Table B11, Rate 10 mg/m2): 3%
- % 1 hour KD (female mosquitoes; Table B12, 10 mg/m2): 41.24%
- % Blood fed (female mosquitoes; Table B12, 10 mg/m2): 3.09%
- % Through net (female mosquitoes; Table B12, 10 mg/m2): 9.28%
- % Blood fed (female mosquitoes; Table B13, 10 mg/m2): 18.56%
- % Through net (female mosquitoes; Table B13, 10 mg/m2): 22.68%
- % Blood fed (female mosquitoes; Table B14, 10 mg/m2): 2.9%
- 24 hour % mort (adult female mosquitoes; Table B15, rates not given): 0%
- 48 hour % mort (adult female mosquitoes; Table B15, rates not given): 0%
- % 1 hour KD (adult female mosquitoes; Table B15, rates not given): 86.66%
- % 1 hour KD (adult female mosquitoes; Table B16, 10ug/bottle): 100%
- % 24 hour mortality (adult female mosquitoes; Table B16, 10ug/bottle): 0%
- 24 hr mort (Anopheles stephensi [1]; [4]): 0.0
- 48 hr mort (Anopheles stephensi [1]; [4]): 0.0
- KD (Anopheles stephensi [1]; [4]): 23.3
- 24 hr mort (Anopheles stephensi [1]; [5]): 7.0
- 48 hr mort (Anopheles stephensi [1]; [5]): 10.0
- KD (Anopheles stephensi [1]; [5]): 60.0
- 24 hr mort (Anopheles stephensi [1]; [6]): 0.0
- 48 hr mort (Anopheles stephensi [1]; [6]): 0.0
- KD (Anopheles stephensi [1]; [6]): 73.0
- 24 hr mort (Anopheles stephensi [1]; [7]): 2.5
- 48 hr mort (Anopheles stephensi [1]; [7]): 2.5
- KD (Anopheles stephensi [1]; [7]): 17.5
- knockdown after 1 hour (Anopheles stephensi [1]; Table B10, Compound (I.3) alone 0.5 ppm): 0.0
- pest or weed control at 0.2 ppm (Aedes aegypti; Rate 0.2 PPM): 100%
- pest or weed control at 2 ppm (Aedes aegypti; Rate 2 PPM): 100%
- pest or weed control at 20 ppm (Aedes aegypti; Rate 20 PPM): 100%
- pest or weed control at 200 ppm (Aedes aegypti; Rate 200 PPM): 100%
- pest or weed control at 0.2 ppm (Anopheles stephensi [2]; Rate 0.2 PPM): 20%
- pest or weed control at 2 ppm (Anopheles stephensi [2]; Rate 2 PPM): 20%
- pest or weed control at 20 ppm (Anopheles stephensi [2]; Rate 20 PPM): 100%
- pest or weed control at 200 ppm (Anopheles stephensi [2]; Rate 200 PPM): 100%

Compound: CC1(C)C(C=C(Cl)Cl)C1C(=O)OCc1cccc(Oc2ccccc2)c1 (stereo not shown) [Permethrin]
- mortality at 10 mg/m2 (female mosquitoes; [3]): 24%
- % Blood fed (female mosquitoes; Table B11, Rate 10 mg/m2): 31%
- 24 hour % mort (adult female mosquitoes; Table B15, rates not given): 0%
- 48 hour % mort (adult female mosquitoes; Table B15, rates not given): 0%
- % 1 hour KD (adult female mosquitoes; Table B15, rates not given): 100%
- % 1 hour KD (adult female mosquitoes; Table B16, 1ug/bottle): 100%
- % 24 hour mortality (adult female mosquitoes; Table B16, 1ug/bottle): 0%
- 24 hr mort (Anopheles stephensi [1]; Table B1, 0.0625 ppm alone): 0.0
- 48 hr mort (Anopheles stephensi [1]; Table B1, 0.0625 ppm alone): 0.0
- KD (Anopheles stephensi [1]; Table B1, 0.0625 ppm alone): 0.0
- 24 hr mort (Anopheles stephensi [1]; Table B1, 0.125 ppm alone): 3.3
- 48 hr mort (Anopheles stephensi [1]; Table B1, 0.125 ppm alone): 0.0
- KD (Anopheles stephensi [1]; Table B1, 0.125 ppm alone): 0.0
- 24 hr mort (Anopheles stephensi [1]; Table B1, 0.25 ppm alone): 16.7
- 48 hr mort (Anopheles stephensi [1]; Table B1, 0.25 ppm alone): 20.0
- KD (Anopheles stephensi [1]; Table B1, 0.25 ppm alone): 0.0
- 24 hr mort (Anopheles stephensi [1]; Table B1, 0.5 ppm alone): 23.3
- 48 hr mort (Anopheles stephensi [1]; Table B1, 0.5 ppm alone): 30.0
- KD (Anopheles stephensi [1]; Table B1, 0.5 ppm alone): 0.0
- 24 hr mort (Anopheles stephensi [1]; Table B1, 1 ppm alone): 40.0
- 48 hr mort (Anopheles stephensi [1]; Table B1, 1 ppm alone): 46.7
- KD (Anopheles stephensi [1]; Table B1, 1 ppm alone): 10.0
- 24 hr mort (Anopheles stephensi [1]; Table B1, 2 ppm alone): 66.7
- 48 hr mort (Anopheles stephensi [1]; Table B1, 2 ppm alone): 80.0
- KD (Anopheles stephensi [1]; Table B1, 2 ppm alone): 13.3
- 24 hr mort (Anopheles stephensi [1]; Table B2, 0.0625 ppm alone): 0.0
- 48 hr mort (Anopheles stephensi [1]; Table B2, 0.0625 ppm alone): 0.0
- KD (Anopheles stephensi [1]; Table B2, 0.0625 ppm alone): 0.0
- 24 hr mort (Anopheles stephensi [1]; Table B2, 0.125 ppm alone): 0.0
- 48 hr mort (Anopheles stephensi [1]; Table B2, 0.125 ppm alone): 0.0
- KD (Anopheles stephensi [1]; Table B2, 0.125 ppm alone): 0.0
- 24 hr mort (Anopheles stephensi [1]; Table B2, 0.25 ppm alone): 10.0
- 48 hr mort (Anopheles stephensi [1]; Table B2, 0.25 ppm alone): 10.0
- KD (Anopheles stephensi [1]; Table B2, 0.25 ppm alone): 0.0
- 24 hr mort (Anopheles stephensi [1]; Table B2, 0.5 ppm alone): 30.0
- 48 hr mort (Anopheles stephensi [1]; Table B2, 0.5 ppm alone): 50.0
- KD (Anopheles stephensi [1]; Table B2, 0.5 ppm alone): 0.0
- 24 hr mort (Anopheles stephensi [1]; Table B2, 1 ppm alone): 40.0
- 48 hr mort (Anopheles stephensi [1]; Table B2, 1 ppm alone): 70.0
- KD (Anopheles stephensi [1]; Table B2, 1 ppm alone): 0.0
- 24 hr mort (Anopheles stephensi [1]; Table B2, 2 ppm alone): 80.0
- 48 hr mort (Anopheles stephensi [1]; Table B2, 2 ppm alone): 80.0
- KD (Anopheles stephensi [1]; Table B2, 2 ppm alone): 0.0
